Laboratory results reported in BindingDB's records for patent US9624213 (Plexxikon, 2017).

Target: Serine/threonine-protein kinase B-raf [V600E] (Homo sapiens, UniProt P15056, V600E)
Assay: Biochemical activity
Procedure: Assays for biochemical and cell based activity are known in the art, for example, as described in PCT publication WO 2007/002433, the disclosure of which is hereby incorporated by reference as it relates to such assays. For example, the biochemical activity IC50 values are determined with respect to inhibition of B-Raf V600E kinase activity or p-Erk kinase activity, where inhibition of phosphorylation of a peptide substrate is measured as a function of compound concentration. Compounds to be tested are diluted in dimethyl sulfoxide to a concentration of 0.1 mM. These are serially diluted 15 uL into 30 uL of dimethyl sulfoxide seven times in 96 well plates for a total of 8 dilution points, and for each dilution point 1 uL is added to a well of an assay plate. Plates are prepared such that each well in a 384 well plate contains 1 uL of compound in 10 uL volume with 0.1 ng Raf enzyme (i.e. any of B-Raf, c-Raf-1 or B-Raf V600E, Upstate Biotechnology or prepared by methods known to one of skill in the art), 50 mM HEPES, pH 7.0, 50 mM NaCl, 2 mM MgCl2, 1 mM MnCl2, 0.01% Tween-20, 1 mM DTT, and 100 nM biotin-MEK1 as substrate. The reaction is started with addition of 10 uL of 200 uM ATP (i.e. final 100 uM ATP). After incubation of the kinase reaction for 45 minutes at room temperature, 5 uL/well of Stop Solution is added (25 mM Hepes pH 7.5, 100 mM EDTA, 0.01% BSA with donor beads (Streptavidin coated beads, Perkin Elmer), acceptor beads (Protein A coated, Perkin Elmer), and anti phosphor MEK1/2 antibody (CellSignal), each at final concentration 10 ug/mL).

Serine/threonine-protein kinase B-raf [V600E], sequence (P15056 2-766 V600E limits assumed): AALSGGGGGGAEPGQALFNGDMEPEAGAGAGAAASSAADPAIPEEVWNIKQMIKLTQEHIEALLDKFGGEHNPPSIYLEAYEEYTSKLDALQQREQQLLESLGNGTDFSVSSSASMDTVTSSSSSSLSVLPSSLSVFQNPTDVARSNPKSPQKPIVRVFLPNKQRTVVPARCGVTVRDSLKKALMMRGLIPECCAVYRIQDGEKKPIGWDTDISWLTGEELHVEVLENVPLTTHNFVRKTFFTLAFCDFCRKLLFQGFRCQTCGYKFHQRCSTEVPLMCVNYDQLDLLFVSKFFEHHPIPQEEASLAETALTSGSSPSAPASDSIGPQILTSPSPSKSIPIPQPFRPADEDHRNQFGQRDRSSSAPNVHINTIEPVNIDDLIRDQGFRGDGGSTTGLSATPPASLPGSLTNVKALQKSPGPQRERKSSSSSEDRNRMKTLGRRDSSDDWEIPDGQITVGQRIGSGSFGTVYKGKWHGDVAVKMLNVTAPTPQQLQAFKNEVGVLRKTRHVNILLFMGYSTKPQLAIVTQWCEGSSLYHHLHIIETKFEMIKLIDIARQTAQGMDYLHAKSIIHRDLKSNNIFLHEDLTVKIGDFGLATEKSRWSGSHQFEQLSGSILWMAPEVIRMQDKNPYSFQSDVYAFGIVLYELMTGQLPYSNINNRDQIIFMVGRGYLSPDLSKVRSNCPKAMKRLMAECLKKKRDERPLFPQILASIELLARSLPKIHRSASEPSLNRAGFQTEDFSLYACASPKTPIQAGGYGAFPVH

With CCN(C)S(=O)(=O)Nc1cccc(C(=O)c2c[nH]c3ncc(C#N)cc23)c1F [US9624213, Compound P-0039] the IC50 was < 100 nM.

CCN(C)S(=O)(=O)Nc1cccc(C(=O)c2c[nH]c3ncc(-c4ccc(Cl)cc4)cc23)c1F was tested, and the IC50 was < 100 nM.

With CN(C)c1ccc(-c2cnc3[nH]cc(C(=O)c4cccc(NS(=O)(=O)N(C)C)c4F)c3c2)cn1 the IC50 was < 100 nM.

With CC(C)CN(C)S(=O)(=O)Nc1cccc(C(=O)c2c[nH]c3ncc(I)cc23)c1F [US9624213, Compound P-0070] the IC50 was > 100 nM.

For CCN(C)S(=O)(=O)Nc1cccc(C(=O)c2c[nH]c3ncc(-c4ccc(C#N)cc4)cc23)c1F, the IC50 was < 100 nM.

With CNS(=O)(=O)Nc1cccc(C(=O)c2c[nH]c3ncc(-c4cnc(OC)nc4)cc23)c1F the IC50 was > 100 nM.

With CCN(C)S(=O)(=O)Nc1cccc(C(=O)c2c[nH]c3ncc(-c4ccc(F)cc4)cc23)c1F the IC50 was < 100 nM.

With Cc1ccc(-c2cnc3[nH]cc(C(=O)c4cccc(NS(=O)(=O)N(C)C)c4F)c3c2)cn1 [US9624213, Compound P-0029] the IC50 was < 100 nM.

With CCN(C)S(=O)(=O)Nc1cccc(C(=O)c2c[nH]c3ncc(-c4ccc(C)nc4)cc23)c1F the IC50 was < 100 nM.

With O=C(c1c(F)ccc(NS(=O)(=O)N2CCCC2)c1F)c1c[nH]c2ncc(I)cc12 the IC50 was < 100 nM.

CCN(C)S(=O)(=O)Nc1ccc(F)c(C(=O)c2c[nH]c3ncc(-c4cnc(OC)nc4)cc23)c1F was tested, and the IC50 was < 100 nM.

For COc1ncc(-c2cnc3[nH]cc(C(=O)c4cccc(NS(=O)(=O)N5CCCC5)c4F)c3c2)c(OC)n1 [US9624213, Compound P-0044], the IC50 was < 100 nM.

CN(C)S(=O)(=O)Nc1cccc(C(=O)c2c[nH]c3ncc(-c4ccc(C#N)cc4)cc23)c1F was tested, and the IC50 was < 100 nM.

With CN(C)S(=O)(=O)Nc1cccc(C(=O)c2c[nH]c3ncc(-c4ccc(F)cc4)cc23)c1F the IC50 was < 100 nM.

With CCN(C)S(=O)(=O)Nc1cccc(C(=O)c2c[nH]c3ncc(-c4cccnc4)cc23)c1F the IC50 was < 100 nM.

COc1ncc(-c2cnc3[nH]cc(C(=O)c4cccc(NS(=O)(=O)N(C)C5CC5)c4F)c3c2)cn1 was tested, and the IC50 was < 100 nM.

In the case of CCC(C)S(=O)(=O)Nc1cccc(C(=O)c2c[nH]c3ncc(-c4cnc(C5CC5)nc4)cc23)c1F (centres undefined) [US9624213, Compound P-0228], the IC50 is reported as < 100 nM.

With CN(C)c1ncc(-c2cnc3[nH]cc(C(=O)c4c(F)ccc(NS(=O)(=O)N5CCCC5)c4F)c3c2)cn1 the IC50 was < 100 nM.

With CCN(C)S(=O)(=O)Nc1cccc(C(=O)c2c[nH]c3ncc(-c4cnc(OC)nc4)cc23)c1F the IC50 was < 100 nM.
